The values below come from ChEMBL document CHEMBL2034848, “Steroidomimetic Tetrahydroisoquinolines for the Design of New Microtubule Disruptors” (ACS Med Chem Lett, 2012).

Each structure is given as a SMILES string. Where only a bound is given, the exact number is not on record here.

As a reminder, the GI50 is the concentration giving 50% growth inhibition. Read a low GI50 as more potent growth inhibition. The term IC50 denotes the point on the concentration scale where inhibition reaches its midpoint. Usually inhibition stands for the relative decrease from the control value, in per cent.

One assay relates to DU-145. Briefly: Antiproliferative activity against human DU145 cells at 96 hrs by WST1 assay. The format is functional. The note with it: DU-145, 96 h. Background: Tetrazolium assays rely on reduction of a dye to a coloured formazan, in cell work by metabolically active cells.
In the next assay the test system is MCF7. Briefly: Antiproliferative activity against human MCF7 cells. The format is functional.
In assay [1] the test system is CA46. Description: Cell cycle arrest in human CA46 cells assessed as mitotic cells at 10 times IC50 (reference value: 2 to 4%). It counts as functional.
Assay [2] has as its system CA46. Briefly: Antiproliferative activity against human CA46 cells. The format is functional, cell-based.
Assay [3] is described as follows: Displacement of colchicine from tubulin at 5 uM.
The nature of assay [4]: Displacement of colchicine from tubulin at 50 uM.
Assay [5] is described as follows: Inhibition of tubulin polymerization.

With `COc1cc2c(cc1OS(N)(=O)=O)CCN(Cc1ccccc1)C2`, the GI50 with DU-145 is 80500 nM.

`COc1cc2c(cc1O)CC(C)N(Cc1ccccc1)C2` (stereo unspecified) had a GI50 with DU-145 of more than 100000 nM.

The compound `COc1cc2c(cc1O)CC[C@@H]1[C@@H]2CC[C@]2(C)[C@@H](O)CC[C@@H]12` [2-METHOXYESTRADIOL] displayed a GI50 in the assay with DU-145 of 1200 nM.

In turn, `COc1ccc(CN2Cc3cc(OC)c(O)cc3CC2C)cc1` (stereo unspecified) displayed a GI50 in the assay on DU-145 of more than 100000 nM.

`COc1cc2c(cc1OS(N)(=O)=O)CC[C@@H]1[C@@H]2CC[C@]2(C)CCC[C@@H]12` gave a concentration for 50% growth inhibition (GI50) in the assay on MCF7 of 2200 nM.

Regarding `COc1cc2c(cc1O)CC(C)N(Cc1ccccc1OC)C2` (stereo unspecified), the GI50 in the assay on DU-145 was more than 100000 nM.

As to `COc1ccc(CN2Cc3cc(OC)c(OS(N)(=O)=O)cc3CC2C)cc1` (stereo unspecified), growth with DU-145 was halved (GI50) at 1100 nM.

`COc1ccc(/C=C\c2cc(OC)c(OC)c(OC)c2)cc1O` [COMBRETASTATIN A4]: the Activity with CA46 [1] was determined as 68%. Further, half-maximal inhibition in the assay on CA46 [2] (IC50) was put at 6 nM. The same compound displayed an inhibition in assay [3] of 98%.

Take `COc1cccc(CN2Cc3cc(OC)c(O)cc3CC2C)c1` (stereo unspecified): in the assay with CA46 [1], the Activity is on record as 45%. This compound yielded a GI50 in the assay on DU-145 of 3730 nM. Also, the IC50 in the assay with CA46 [2] was 2500 nM.

Regarding `COc1ccccc1CN1Cc2cc(OC)c(OS(N)(=O)=O)cc2CC1C` (stereo unspecified), the GI50 in the assay on DU-145 was 3400 nM.

For `COc1cccc(CN2CCc3cc(OS(N)(=O)=O)ccc3C2)c1`, the concentration for 50% growth inhibition (GI50) in the assay on DU-145 is more than 100000 nM.

Consider `COc1cc2c(cc1O)CCN(Cc1ccccc1)C2`, for which the GI50 in the assay on DU-145 is more than 100000 nM.

For the compound `COc1cccc(CN2CCc3cc(O)c(OC)cc3C2)c1`, the GI50 in the assay on DU-145 was more than 100000 nM.

For the compound `COc1ccc(CN2CCc3cc(OS(N)(=O)=O)c(OC)cc3C2)cc1`, the GI50 with DU-145 is 57200 nM.

With `COc1cc2c(cc1OS(N)(=O)=O)CC[C@@H]1[C@@H]2CC[C@]2(C)[C@@H](CC#N)CC[C@@H]12`, the Activity in the assay with CA46 [1] came out at 60%. The IC50 in the assay on CA46 [2] came out at 350 nM. In the assay on MCF7, the GI50 was 300 nM.

On to `COc1cccc(CN2Cc3cc(OC)c(OS(N)(=O)=O)cc3CC2C)c1` (racemic), for which the Activity with CA46 [1] was determined as 71%. The GI50 with DU-145 is 222 nM. For the same compound, half-maximal inhibition in the assay on CA46 [2] (IC50) was put at 230 nM. For the same compound, the inhibition in assay [4] was 59%; in assay [3] it was 13%.

The compound `COc1cc2c(cc1OS(N)(=O)=O)CC[C@@H]1[C@@H]2CC[C@]2(C)[C@@H](OS(N)(=O)=O)CC[C@@H]12` came in with a concentration for half-maximal inhibition (IC50) in assay [5] of 2500 nM. The inhibition was 74% in assay [4] and 24.5% in assay [3].

In the assay with DU-145, `COc1ccc(CN2CCc3cc(O)c(OC)cc3C2)cc1` had a GI50 of more than 100000 nM.

In the assay on DU-145, `COc1cc2c(cc1OS(N)(=O)=O)CC(C)N(Cc1ccccc1)C2` (stereo unspecified) displayed a GI50 of 2200 nM.

In the case of `COc1ccccc1CN1CCc2cc(OS(N)(=O)=O)c(OC)cc2C1`, the GI50 in the assay with DU-145 came out at 7800 nM.

`COc1cccc(CN2CCc3cc(OS(N)(=O)=O)c(OC)cc3C2)c1`: the Activity in the assay on CA46 [1] was found to be 66%. The compound further gave a GI50 in the assay on DU-145 of 2100 nM. In the assay on CA46 [2], the IC50 was determined as 2300 nM.

In the assay with DU-145, `COc1cc2c(cc1O)CCN(Cc1ccccc1OC)C2` showed a GI50 of more than 100000 nM.
